One compound from ChEMBL document CHEMBL5726897, “Pyridopyrimidinones and methods of use thereof” (2019) can be followed below.

The target of this test is Glutamate NMDA receptor; GRIN1/GRIN2A (Homo sapiens, UniProt Q05586+Q12879). Description: TBD: TBD. The class given is protein-complex assay.

Each structure is given as a SMILES string.

Sequence of Glutamate NMDA receptor; GRIN1/GRIN2A (Q12879 whole entry, other chains not shown): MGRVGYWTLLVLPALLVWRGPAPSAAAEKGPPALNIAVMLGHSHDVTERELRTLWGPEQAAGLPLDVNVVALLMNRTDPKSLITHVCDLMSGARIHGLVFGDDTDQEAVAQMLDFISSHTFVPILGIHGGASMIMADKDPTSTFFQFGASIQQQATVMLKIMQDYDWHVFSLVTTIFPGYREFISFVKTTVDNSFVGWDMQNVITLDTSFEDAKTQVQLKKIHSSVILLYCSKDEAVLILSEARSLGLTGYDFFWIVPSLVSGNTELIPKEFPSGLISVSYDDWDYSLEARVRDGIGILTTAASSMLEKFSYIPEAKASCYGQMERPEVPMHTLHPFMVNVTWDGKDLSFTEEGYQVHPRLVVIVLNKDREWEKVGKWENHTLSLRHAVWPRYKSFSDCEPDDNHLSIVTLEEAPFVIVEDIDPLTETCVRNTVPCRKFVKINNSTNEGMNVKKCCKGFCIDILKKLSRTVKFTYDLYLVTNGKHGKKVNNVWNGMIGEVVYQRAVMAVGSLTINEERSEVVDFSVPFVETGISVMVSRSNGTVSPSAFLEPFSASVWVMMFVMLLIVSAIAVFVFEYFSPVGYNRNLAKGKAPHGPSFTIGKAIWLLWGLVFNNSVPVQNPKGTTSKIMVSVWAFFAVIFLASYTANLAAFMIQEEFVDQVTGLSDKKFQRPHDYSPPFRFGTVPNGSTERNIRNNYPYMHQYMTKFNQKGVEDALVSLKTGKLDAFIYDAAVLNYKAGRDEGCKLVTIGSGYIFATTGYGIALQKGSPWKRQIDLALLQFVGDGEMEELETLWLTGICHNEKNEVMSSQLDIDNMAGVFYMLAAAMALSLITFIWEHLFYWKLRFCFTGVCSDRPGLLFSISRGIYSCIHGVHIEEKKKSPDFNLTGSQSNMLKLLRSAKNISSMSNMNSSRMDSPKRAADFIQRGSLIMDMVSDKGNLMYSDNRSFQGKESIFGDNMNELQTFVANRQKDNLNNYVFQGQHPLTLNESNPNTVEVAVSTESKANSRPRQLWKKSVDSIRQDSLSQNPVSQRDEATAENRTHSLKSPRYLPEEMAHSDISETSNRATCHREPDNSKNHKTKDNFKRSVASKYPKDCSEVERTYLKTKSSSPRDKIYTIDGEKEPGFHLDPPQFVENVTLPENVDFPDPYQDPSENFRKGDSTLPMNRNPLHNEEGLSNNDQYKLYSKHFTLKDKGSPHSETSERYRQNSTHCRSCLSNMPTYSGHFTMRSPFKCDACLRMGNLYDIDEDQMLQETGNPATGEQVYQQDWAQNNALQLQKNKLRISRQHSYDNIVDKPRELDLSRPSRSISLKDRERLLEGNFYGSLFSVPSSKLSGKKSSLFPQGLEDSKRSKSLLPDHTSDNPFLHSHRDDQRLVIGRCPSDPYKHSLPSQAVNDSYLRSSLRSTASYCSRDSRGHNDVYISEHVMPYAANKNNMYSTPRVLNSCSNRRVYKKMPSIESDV

As usually defined, the EC50 is the midpoint of the concentration-response curve. High values mean a less potent agent, low ones a more potent agent. `CCN(Cc1cc(=O)n2c(OC)cccc2n1)c1ccc(F)cc1`: the EC50 was 4.4 µM.
